Data from BindingDB's records for doi:10.1002/cbic.201600697 (University of Tartu, 2017).
“And” between values parts separate entries of the source, which are not always exact repeats. Identical values can stand only once.

Key:
Conditions in all cases: pH 7.5
[1] = biological target: T1, Serine/threonine-protein kinase haspin [470-798] (Homo sapiens, UniProt Q8TF76); experiment: Kinetic Assay with Fluorescence Anisotropy
T1 construct: 470-798
T1 sequence (Q8TF76 whole entry): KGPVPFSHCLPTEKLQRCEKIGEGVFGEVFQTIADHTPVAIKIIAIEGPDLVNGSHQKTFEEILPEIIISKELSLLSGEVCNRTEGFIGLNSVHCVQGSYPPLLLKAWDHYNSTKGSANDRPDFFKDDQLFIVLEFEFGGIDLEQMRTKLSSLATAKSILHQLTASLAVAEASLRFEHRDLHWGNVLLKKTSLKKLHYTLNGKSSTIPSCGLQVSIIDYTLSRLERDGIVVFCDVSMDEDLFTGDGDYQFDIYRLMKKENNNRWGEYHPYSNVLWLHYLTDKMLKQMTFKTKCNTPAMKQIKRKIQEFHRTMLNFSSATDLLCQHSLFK
Method: Association kinetics (Kon): All measurements were performed in HEPES (50 mM, pH 7.5) containing NaCl (150 mM), Tween-20 (0.005%) and DTT (5 mM) according to a previously published protocol.[Vaasa et al., Anal. Biochem., 385:85-93] The final volume of the assay mixture was […] The association kinetics assay with fluorescent probes and data analysis were performed according to published protocols.[Vaasa et al., Anal. Biochem., 385:85-93] The final volume of the assay mixture was […]. Dissociation kinetics (Koff): All measurements were performed in HEPES (50 mM, pH 7.5) containing NaCl (150 mM), Tween-20 0.005%) and DTT (5 mM). Data analysis was as reported previously,[Vaasa et al., Anal. Biochem., 385:85-93] by using method1 for compounds with shorter residence times, and method 2 for 1 in studies with haspin. The final volume of the assay mixture was […]. Kd' is calculated as Koff/Kon.

[2] = biological target: cAMP-dependent protein kinase catalytic subunit alpha (Homo sapiens, UniProt P17612); experiment: Equilibrium Binding/Displacement Assay with Fluorescence Anisotropy
Method: (§1) All measurements were performed in HEPES (50 mm, pH 7.5) containing NaCl (150 mm), Tween-20 (0.005%) and DTT (5 mm) according to a previously published protocol.[Vaasa et al., Anal. Biochem., 385:85-93] The final volume of the assay mixture was […].

[3] = biological target: T1, Serine/threonine-protein kinase haspin [470-798]; experiment: as above
Method: as §1

Kd [1] [nM]	Kd [2] [nM]	Kd [3]	SMILES
14.9	9.6	8.4 nM	CCCCCCCCCCCCCC(=O)NCCCC[C@@H](NC(=O)[C@H](C)NC(=O)[C@@H](NC(=O)[C@H](CCC(N)=O)NC(=O)[C@H](CCCNC(=N)N)NC(=O)[C@H](CCCCNC(=O)C[C@@H](NC(=O)CCCCCNC(=O)[C@H]1O[C@@H](n2ccc3c(N)ncnc32)[C@H](O)[C@@H]1O)C(=O)[O-])NC(=O)[C@H](CCCNC(=N)N)NC(=O)[C@H](C)N)C(C)O)C(=O)N[C@H](CCCCNC(=O)c1ccc(-c2c3ccc(=[N+](C)C)cc-3oc3cc(N(C)C)ccc23)c(C(=O)O)c1)C(N)=O (stereo partly specified) [ARC-3380]
2.84	52	11 nM	CC(O)[C@H](NC(=O)[C@H](CCC(N)=O)NC(=O)[C@H](CCCNC(=N)N)NC(=O)[C@H](CCCCNC(=O)C[C@@H](NC(=O)CCCCCNC(=O)[C@H]1O[C@@H](n2ccc3c(N)ncnc32)[C@H](O)[C@@H]1O)C(=O)[O-])NC(=O)[C@H](CCCNC(=N)N)NC(=O)[C@H](C)N)C(=O)N[C@@H](C)C(=O)N[C@H](CCCCNC(=O)c1ccc(-c2c3ccc(=[N+](C)C)cc-3oc3cc(N(C)C)ccc23)c(C(=O)O)c1)C(N)=O (stereo partly specified) [ARC-3384]
–	94	0.14 nM and 0.019 nM	CC(O)[C@H](NC(=O)[C@H](CCC(N)=O)NC(=O)[C@H](CCCNC(=N)N)NC(=O)[C@H](CCCCNC(=O)C[C@@H](NC(=O)CCCCCNC(=O)[C@H]1O[C@@H](n2cc(I)c3c(N)ncnc32)[C@H](O)[C@@H]1O)C(=O)O)NC(=O)[C@H](CCCNC(=N)N)NC(=O)[C@H](C)N)C(=O)N[C@@H](C)C(=O)N[C@H](CCCCN)C(N)=O (stereo partly specified) [ARC-3429]
0.1	4.1	0.5 nM and 0.12 nM	CC(O)[C@H](NC(=O)[C@H](CCC(N)=O)NC(=O)[C@H](CCCNC(=N)N)NC(=O)[C@H](CCCCNC(=O)C[C@@H](NC(=O)CCCCCNC(=O)[C@H]1O[C@@H](n2cc(I)c3c(N)ncnc32)[C@H](O)[C@@H]1O)C(=O)[O-])NC(=O)[C@H](CCCNC(=N)N)NC(=O)[C@H](C)N)C(=O)N[C@@H](C)C(=O)N[C@H](CCCCNC(=O)c1ccc(-c2c3ccc(=[N+](C)C)cc-3oc3cc(N(C)C)ccc23)c(C(=O)O)c1)C(N)=O (stereo partly specified) [ARC-3430]
